According to ChEMBL document CHEMBL3632533, “O-Benzoyl pyridine aldoxime and amidoxime derivatives: novel efficient DNA photo-cleavage agents” (Medchemcomm, 2015):
Calls of active or inactive are those of the source. The rule behind the calls is not given here.

Tests used:
[1] = system: Enterobacteria phage lambda; test: Induction of Lambda phage supercoiled circular pBluescript KS II DNA cleavage assessed as double-stranded nick formation at 500 uM preincubated for 30 mins followed by UV light irradiation under aerobic condition measured after 15 mins by agarose gel electrophoresis
[2] = system: Enterobacteria phage lambda; test: Induction of Lambda phage supercoiled circular pBluescript KS II DNA cleavage assessed as single-stranded nick formation at 100 uM preincubated for 30 mins followed by UV light irradiation under aerobic condition measured after 15 mins by agarose gel electrophoresis in presence of NaN3
[3] = system: Enterobacteria phage lambda; test: Induction of Lambda phage supercoiled circular pBluescript KS II DNA cleavage assessed as double-stranded nick formation at 100 uM preincubated for 30 mins followed by UV light irradiation under aerobic condition measured after 15 mins by agarose gel electrophoresis in presence of 20% DMSO
[4] = system: Enterobacteria phage lambda; test: Induction of Lambda phage supercoiled circular pBluescript KS II DNA cleavage assessed as single-stranded nick formation at 100 uM preincubated for 30 mins followed by UV light irradiation measured after 15 mins by agarose gel electrophoresis in presence of argon
[5] = system: Enterobacteria phage lambda; test: Induction of Lambda phage supercoiled circular pBluescript KS II DNA cleavage assessed as double-stranded nick formation at 1000 uM preincubated for 30 mins followed by UV light irradiation under aerobic condition measured after 15 mins by agarose gel electrophoresis
[6] = system: Enterobacteria phage lambda; test: Induction of Lambda phage supercoiled circular pBluescript KS II DNA cleavage assessed as single-stranded nick formation at 500 uM preincubated for 30 mins followed by UV light irradiation under aerobic condition measured after 15 mins by agarose gel electrophoresis
[7] = system: Enterobacteria phage lambda; test: Induction of Lambda phage supercoiled circular pBluescript KS II DNA cleavage assessed as single-stranded nick formation at 1 uM preincubated for 30 mins followed by UV light irradiation under aerobic condition measured after 15 mins by agarose gel electrophoresis
[8] = system: Enterobacteria phage lambda; test: Induction of Lambda phage supercoiled circular pBluescript KS II DNA cleavage assessed as double-stranded nick formation at 100 uM preincubated for 30 mins followed by UV light irradiation measured after 15 mins by agarose gel electrophoresis in presence of argon
[9] = system: Enterobacteria phage lambda; test: Induction of Lambda phage supercoiled circular pBluescript KS II DNA cleavage assessed as double-stranded nick formation at 100 uM preincubated for 30 mins followed by UV light irradiation under aerobic condition measured after 15 mins by agarose gel electrophoresis
[10] = system: Enterobacteria phage lambda; test: Induction of Lambda phage supercoiled circular pBluescript KS II DNA cleavage assessed as single-stranded nick formation at 100 uM preincubated for 30 mins followed by UV light irradiation under aerobic condition measured after 15 mins by agarose gel electrophoresis in presence of 20% DMSO
[11] = system: Enterobacteria phage lambda; test: Induction of Lambda phage supercoiled circular pBluescript KS II DNA cleavage assessed as single-stranded nick formation at 100 uM preincubated for 30 mins followed by UV light irradiation under aerobic condition measured after 15 mins by agarose gel electrophoresis in presence of D2O
[12] = system: Enterobacteria phage lambda; test: Induction of Lambda phage supercoiled circular pBluescript KS II DNA cleavage assessed as double-stranded nick formation at 100 uM preincubated for 30 mins followed by UV light irradiation under aerobic condition measured after 15 mins by agarose gel electrophoresis in presence of D2O
[13] = system: Enterobacteria phage lambda; test: Induction of Lambda phage supercoiled circular pBluescript KS II DNA cleavage assessed as single-stranded nick formation at 1000 uM preincubated for 30 mins followed by UV light irradiation under aerobic condition measured after 15 mins by agarose gel electrophoresis
[14] = system: Enterobacteria phage lambda; test: Induction of Lambda phage supercoiled circular pBluescript KS II DNA cleavage incubated for 30 mins by agarose gel electrophoresis in absence of UV light irradiation
[15] = system: Enterobacteria phage lambda; test: Induction of Lambda phage supercoiled circular pBluescript KS II DNA cleavage assessed as single-stranded nick formation at 100 uM preincubated for 30 mins followed by UV light irradiation under aerobic condition measured after 15 mins by agarose gel electrophoresis
[16] = system: Enterobacteria phage lambda; test: Induction of Lambda phage supercoiled circular pBluescript KS II DNA cleavage assessed as double-stranded nick formation at 10 uM preincubated for 30 mins followed by UV light irradiation under aerobic condition measured after 15 mins by agarose gel electrophoresis
[17] = system: Enterobacteria phage lambda; test: Induction of Lambda phage supercoiled circular pBluescript KS II DNA cleavage assessed as double-stranded nick formation at 1 uM preincubated for 30 mins followed by UV light irradiation under aerobic condition measured after 15 mins by agarose gel electrophoresis
[18] = system: Enterobacteria phage lambda; test: Induction of Lambda phage supercoiled circular pBluescript KS II DNA cleavage assessed as single-stranded nick formation at 10 uM preincubated for 30 mins followed by UV light irradiation under aerobic condition measured after 15 mins by agarose gel electrophoresis
[19] = system: Enterobacteria phage lambda; test: Induction of Lambda phage supercoiled circular pBluescript KS II DNA cleavage preincubated for 30 mins followed by UV light irradiation under aerobic condition measured after 15 mins by agarose gel electrophoresis

| Activity [5] [%] | Activity [6] [%] | Activity [7] [%] | Activity [9] [%] | Activity [13] [%] | Activity [14] | Activity [15] [%] | Structure (SMILES) | further results |
| --- | --- | --- | --- | --- | --- | --- | --- | --- |
| 13 | 81 | 59 | 2 | 84 | inactive | 84 | O=C(O/N=C/c1cccnc1)c1ccc([N+](=O)[O-])cc1 | Activity [1]: 2%; Activity [2]: 23%; Activity [3]: 20%; Activity [4]: 85%; Activity [8]: 9%; Activity [10]: 75%; Activity [11]: 85%; Activity [12]: 8% |
| 7 | – | 46 | 10 | 86 | inactive | 83 | O=C(O/N=C/c1ccccn1)c1ccc([N+](=O)[O-])cc1 | – |
| 36 | 75 | 56 | 4 | 64 | inactive | 81 | NC(=NOC(=O)c1ccc([N+](=O)[O-])cc1)c1cccnc1 | Activity [1]: 2%; Activity [2]: 16%; Activity [3]: 5%; Activity [4]: 86%; Activity [16]: Active; Activity [17]: 4%; Activity [8]: 6%; Activity [10]: 83%; Activity [11]: 28%; Activity [18]: Active |
| 50 | – | 25 | 7 | 50 | inactive | 75 | N/C(=N\OC(=O)c1ccc([N+](=O)[O-])cc1)c1ccncc1 | Activity [16]: Active; Activity [18]: Active |
| – | 25 | – | – | 25 | inactive | 5 | N=C(NOC(=O)c1ccccc1)c1cccnc1 | – |
| – | 6 | – | – | 0 | inactive | 0 | CC(=O)O/N=C(\N)c1cccnc1 | – |
| 1 | 38 | – | – | 72 | inactive | 39 | O=C(O/N=C/c1cccnc1)c1ccccc1 | – |
| – | 29 | – | – | 35 | inactive | 0 | COc1ccc(C(=O)O/N=C/c2cccnc2)cc1 | – |
| 20 | – | 70 | 10 | 73 | inactive | 85 | NC(=NOC(=O)c1ccc([N+](=O)[O-])cc1)c1ccccn1 | Activity [16]: Active; Activity [17]: 15%; Activity [18]: Active |
| – | 27 | – | – | 36 | inactive | 0 | COc1ccc(C(=O)O/N=C(\N)c2cccnc2)cc1 | – |
| 33 | – | 28 | 9 | 67 | inactive | 87 | O=C(O/N=C/c1ccncc1)c1ccc([N+](=O)[O-])cc1 | – |

| Structure (SMILES) | Activity [5] [%] | Activity [6] [%] | Activity [7] [%] | Activity [9] [%] | Activity [13] [%] | Activity [14] | Activity [15] [%] | further results |
| --- | --- | --- | --- | --- | --- | --- | --- | --- |
| O/N=C/c1cccnc1 | – | – | – | – | – | inactive | – | Activity [19]: inactive |
| N/C(=N\O)c1cccnc1 | – | – | – | – | – | inactive | – | Activity [19]: inactive |
